Results reported in US9284312B2, “N-methyl tetrahydroquinoline M1 receptor positive allosteric modulators” (Merck Sharp & Dohme Corp., priority 2011, dated 2016).
pEC50: −log10 of the molar value.

These compounds were tested against T1, acetylcholine muscarinic M1 receptor (Homo sapiens, UniProt P11229) (assay: muscarinic FLIPR assay: intracellular calcium in CHOnfat/hM1 cells with EC20 acetylcholine (positive allosteric modulation)). Conditions: not given.
T1 construct: expressed in transfected cells; host or cells: CHOnfat (CHO cells, Geneticin-selected) expressing hM1
T1 sequence (P11229 1-460): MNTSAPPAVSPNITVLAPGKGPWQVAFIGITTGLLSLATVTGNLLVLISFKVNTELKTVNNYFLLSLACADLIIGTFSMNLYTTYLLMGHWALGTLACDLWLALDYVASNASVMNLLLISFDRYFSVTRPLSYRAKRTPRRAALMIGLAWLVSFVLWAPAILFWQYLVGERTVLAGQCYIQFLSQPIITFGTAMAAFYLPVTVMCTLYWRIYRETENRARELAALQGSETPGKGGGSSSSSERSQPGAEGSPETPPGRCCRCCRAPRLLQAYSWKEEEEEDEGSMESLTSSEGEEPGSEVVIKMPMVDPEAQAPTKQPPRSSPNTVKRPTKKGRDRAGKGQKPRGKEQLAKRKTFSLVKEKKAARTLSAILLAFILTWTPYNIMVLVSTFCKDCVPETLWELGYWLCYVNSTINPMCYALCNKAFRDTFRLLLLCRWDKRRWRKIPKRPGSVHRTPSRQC
Type: cell-based
Protocol: The assay studies the effect of one or several concentrations of test compounds on basal or acetylcholine-stimulated Ca^2+ levels using FLIPR.
Compounds are prepared and subjected to a preincubation period of 4 min. Thereafter, a single EC20 concentration of acetylcholine is added to each well (3 nM final). The intracellular Ca^2+ level of each sample is measured and compared to an acetylcholine control to determine any modulatory activity.
Cells: CHOnfat/hM1, hM2, hM3 or hM4 cells are plated 24 hr before the assay at a density of 18,000 cells/well (100 μL) in a 384 well plate. CHOnfat/hM1 and CHOnfat/hM3 Growth Medium: 90% DMEM (Hi Glucose); 10% HI FBS; 2 mM L-glutamine; 0.1 mM NEAA; Pen-Strep; and 1 mg/ml Geneticin, are added. For M2Gqi5CHOnfat and M4Gqi5CHOnfat cells, an additional 600 ug/ml hygromycin is added.
Equipment: 384 well plate, 120 μL addition plate; 96-well Whatman 2 ml Uniplate Incubator, 37° C., 5% CO2; Skatron EMBLA-384 Plate Washer; Multimek Pipetting System; Genesis Freedom 200 System; Mosquito System; Temo Nanoliter Pipetting System; and FLIPR^384 Fluorometric Imaging Plate Reader System are used.
Buffers. Assay Buffer: Hanks Balanced Salt Solution, with 20 mM Hepes, 2.5 mM Probenecid (Sigma P-8761) first dissolved in 1 N NaOH, 1% Bovine Serum Albumin (Sigma A-9647). Dye Loading Buffer: Assay Buffer plus 1% Fetal Bovine Serum and Fluo-4AM/Pluronic Acid Mixture. 2 mM Fluo-4AM ester stock in DMSO (Molecular Probes F-14202) Concentration of 2 μM in buffer for a final concentration of […] in Assay. 20% Pluronic Acid Solution stock, with concentration of 0.04% in Buffer, 0.02% in Assay.
65 μL of 2 mM Fluo-4AM are mixed with 130 μL of 20% Pluronic Acid. The resulting solution and 650 μL FBS is added to the assay buffer for a total volume of 65 mL. Positive Controls: 4-Br-A23187: 10 mM in DMSO; final concentration 10 μM. Acetylcholine: 10 mM in water, working stock at both 20 μM and 30 μM in assay buffer, final concentration of 10 μM. This is used to check the maximum stimulation of the CHOK1/hM1 cells. 20 μM (2×) acetylcholine is added in the preincubation part of the assay, and the 30 μM (3×) stock is added in the second part. (EC20)Acetylcholine: 10 mM in water, working stock of 9 nM (3×), and final concentration in assay is 3 nM. This is used after the preincubation with test compounds. Addition of the EC20 Acetylcholine to each well with a test compound will ascertain any modulator activity. 24 wells contain 3 nM Acetylcholine alone as a control.
Determining Activity of Putative Compounds:
Screening Plate: Compounds are titrated in 96-well plates (columns 2-11), 100% DMSO, started at a concentration of 15 mM (150× stock concentration), and 3-fold serial dilutions using Genesis Freedom200 System. Four 96-well plates are combined into a 384-well plate using Mosquito Nanoliter Pipetting System by transferring 1 μl of serial diluted compounds to each well, and 1 mM acetylcholine (100× stock concentration) were added as a control. Using Temo, 49 μl assay buffer is added to each well of the 384-well plate right before assay.
In a 96-well Whatman 2 ml Uniplate, 9 nM Acetylcholine (3×) is pipetted into wells corresponding to the screening compounds, and into control wells. The 30 μM acetylcholine control (3×) is added into control wells, and the 3× agonist plate is transferred into a 384 well plate.
Cells are washed three times with 100 μL of buffer, leaving 30 μL of buffer in each well. Using Multimek, 30 μL of Dye Loading Buffer is added into each well and incubated at 37° C., 5% CO2 for up to one hr.
After 60 min, the cells are washed three times with 100 μL of buffer, leaving 30 μL of buffer in each well. The cell plate, screening plate, and agonist addition plates are placed on the platform in the FLIPR and the door closed. A signal test to check background fluorescence and basal fluorescence signal is performed. Laser intensity is adjusted if necessary. […]

Structure (SMILES) | pEC50
CN(C)C(=O)Oc1ccc(Cc2cc3c(=O)n([C@H]4CCCC[C@@H]4O)cnc3c3c2C=CCN3C)cc1 [Example 8, 4-({3-[(1S,2S)-2-Hydroxycyclohexyl]-10-methyl-4-oxo-3,4,9,10-tetrahydropyrido[3,2-h]quinazolin-6-yl}methyl)phenyl dimethylcarbamate] | 7.60

Same assay, conditions: CHOnfat/hM1 cells, FLIPR Ca2+, 4 min preincubation, then EC20 acetylcholine (3 nM final); read-out: IP Value (inflection point)

pEC50 | Structure (SMILES)
8.37 | CN1CC=Cc2c(Cc3ccc(Cl)nc3)cc3c(=O)n([C@H]4CCOC[C@@H]4O)cnc3c21 [Example 2, 6-[(6-Chloropyridin-3-yl)methyl]-3-[(3R,4S)-3-hydroxytetrahydro-2H-pyran-4-yl]-10-methyl-9,10-dihydropyrido[3,2-h]quinazolin-4(3H)-one]
8.59 | CN1CC=Cc2c(Cc3ccc(-c4cnn(C)c4)nc3)cc3c(=O)n([C@H]4CCCC[C@@H]4O)cnc3c21 [Example 6, 3-[(1S,2S)-2-Hydroxycyclohexyl]-10-methyl-6-{[6-(1-methyl-1H-pyrazol-4-yl)pyridin-3-yl]methyl}-9,10-dihydropyrido[3,2-h]quinazolin-4(3H)-one]
8.59 | CN1CC=Cc2c(Cc3ccc(O)cc3)cc3c(=O)n([C@H]4CCCC[C@@H]4O)cnc3c21 [Example 7, 6-(4-Hydroxybenzyl)-3-[(1S,2S)-2-hydroxycyclohexyl]-10-methyl-9,10-dihydropyrido[3,2-h]quinazolin-4(3H)-one]

Further lines, the compound ahead of its results:

Structure (SMILES) | pEC50
CN1CC=Cc2c(Cc3ccc(Cl)nc3)cc3c(=O)n([C@H]4CCCC[C@@H]4O)cnc3c21 [Example 1, 6-[(6-Chloropyridin-3-yl)methyl]-3-[(1S,2S)-2-hydroxycyclohexyl]-10-methyl-9,10-dihydropyrido[3,2-h]quinazolin-4(3H)-one] | 8.52
CSc1ccc(Cc2cc3c(=O)n([C@H]4CCCC[C@@H]4O)cnc3c3c2C=CCN3C)cn1 [Example 3, 3-[(1S,2S)-2-Hydroxycyclohexyl]-10-methyl-6-{[-(methylthio)-pyridin-3-yl]methyl}-9,10-dihydropyrido[3,2-h]quinazolin-4(3H)-one] | 8.38
COc1cc(Cc2cc3c(=O)n([C@H]4CCCC[C@@H]4O)cnc3c3c2C=CCN3C)ccn1 [Example 9, 3-[(1S,2S)-2-Hydroxycyclohexyl]-6-[(2-methoxypyridin-4-yl)methyl]-10-methyl-9,10-dihydropyrido[3,2-h]quinazolin-4(3H)-one] | 8.28
COc1ccc(Cc2cc3c(=O)n([C@H]4CCCC[C@@H]4O)cnc3c3c2C=CCN3C)cn1 [Example 4, 3-[(1S,2S)-2-Hydroxycyclohexyl]-6-[(6-methoxypyridin-3-yl)methyl]-10-methyl-9,10-dihydropyrido[3,2-h]quinazolin-4(3H)-one] | 7.85
CN1CC=Cc2c(Cc3cccnc3)cc3c(=O)n([C@H]4CCCC[C@@H]4O)cnc3c21 [Example 5, 3-[(1S,2S)-2-Hydroxycyclohexyl]-10-methyl-6-(pyridine-3-ylmethyl)-9,10-dihydropyrido[3,2-h]quinazolin-4(3H)-one] | 7.68

Same assay, conditions: column head 'H Pot.' of the untitled table after Table 1; no unit or method printed; read-out: H Pot.

pEC50 | Structure (SMILES)
6.58 | CCN1CC=Cc2c(Cc3ccc(Cl)nc3)cc3c(=O)n([C@H]4CCCC[C@@H]4O)cnc3c21 [Example 46]
